# From ChEMBL document CHEMBL4422622, “Identification of Mineralocorticoid Receptor Modulators with Low Impact on Electrolyte Homeostasis but Maintained Organ Protection” (J Med Chem, 2019)
# Legend:
# [1] = Octanol-water partitioning co-efficient, log D of the compound at pH 7.4 by LC/MS/MS analysis; format: physicochemical
# [2] = Kinetic solubility of compound at pH 7.4 after 24 hrs by shake-flask assay; format: physicochemical; conditions: buffer, read-out: -log(solubility) (converted)
# Progesterone receptor = target: T1, Progesterone receptor (Homo sapiens, UniProt P06401); assay: Binding affinity to recombinant human progesterone receptor LBD by fluormone PL red-fluorescence polarization assay
# T1 sequence (P06401 whole entry): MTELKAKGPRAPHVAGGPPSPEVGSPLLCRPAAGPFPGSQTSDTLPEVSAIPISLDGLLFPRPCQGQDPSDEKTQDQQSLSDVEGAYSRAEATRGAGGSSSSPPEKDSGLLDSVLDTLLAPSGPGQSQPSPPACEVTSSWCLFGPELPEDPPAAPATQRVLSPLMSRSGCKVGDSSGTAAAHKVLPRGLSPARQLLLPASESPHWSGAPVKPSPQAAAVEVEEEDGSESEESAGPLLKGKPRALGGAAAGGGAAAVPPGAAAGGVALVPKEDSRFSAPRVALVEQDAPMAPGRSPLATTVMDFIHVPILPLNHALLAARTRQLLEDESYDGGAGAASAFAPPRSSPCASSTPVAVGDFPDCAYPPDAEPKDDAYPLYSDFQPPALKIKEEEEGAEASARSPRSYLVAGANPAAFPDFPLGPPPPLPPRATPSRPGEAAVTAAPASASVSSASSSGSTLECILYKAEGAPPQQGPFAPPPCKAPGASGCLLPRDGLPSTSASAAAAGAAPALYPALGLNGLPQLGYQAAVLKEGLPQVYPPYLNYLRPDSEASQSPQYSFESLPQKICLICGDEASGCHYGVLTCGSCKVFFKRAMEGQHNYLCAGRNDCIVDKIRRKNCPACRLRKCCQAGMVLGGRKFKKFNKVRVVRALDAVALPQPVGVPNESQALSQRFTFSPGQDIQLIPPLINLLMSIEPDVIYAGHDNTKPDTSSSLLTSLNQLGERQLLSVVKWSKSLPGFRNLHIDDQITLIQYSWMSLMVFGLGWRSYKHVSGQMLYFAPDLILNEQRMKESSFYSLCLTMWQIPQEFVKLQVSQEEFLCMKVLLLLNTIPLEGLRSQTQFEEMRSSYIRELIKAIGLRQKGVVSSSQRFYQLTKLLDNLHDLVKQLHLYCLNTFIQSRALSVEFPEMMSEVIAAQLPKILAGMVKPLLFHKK
# [3] = Intrinsic clearance in human liver microsomes at 1 uM measured up to 30 mins in presence of NADPH by LC-MS/MS analysis; format: ADME, Microsome; conditions: read-out: CLH
# [4] = target: T2, Mineralocorticoid receptor (Homo sapiens, UniProt P08235)
# T2 sequence (P08235 whole entry): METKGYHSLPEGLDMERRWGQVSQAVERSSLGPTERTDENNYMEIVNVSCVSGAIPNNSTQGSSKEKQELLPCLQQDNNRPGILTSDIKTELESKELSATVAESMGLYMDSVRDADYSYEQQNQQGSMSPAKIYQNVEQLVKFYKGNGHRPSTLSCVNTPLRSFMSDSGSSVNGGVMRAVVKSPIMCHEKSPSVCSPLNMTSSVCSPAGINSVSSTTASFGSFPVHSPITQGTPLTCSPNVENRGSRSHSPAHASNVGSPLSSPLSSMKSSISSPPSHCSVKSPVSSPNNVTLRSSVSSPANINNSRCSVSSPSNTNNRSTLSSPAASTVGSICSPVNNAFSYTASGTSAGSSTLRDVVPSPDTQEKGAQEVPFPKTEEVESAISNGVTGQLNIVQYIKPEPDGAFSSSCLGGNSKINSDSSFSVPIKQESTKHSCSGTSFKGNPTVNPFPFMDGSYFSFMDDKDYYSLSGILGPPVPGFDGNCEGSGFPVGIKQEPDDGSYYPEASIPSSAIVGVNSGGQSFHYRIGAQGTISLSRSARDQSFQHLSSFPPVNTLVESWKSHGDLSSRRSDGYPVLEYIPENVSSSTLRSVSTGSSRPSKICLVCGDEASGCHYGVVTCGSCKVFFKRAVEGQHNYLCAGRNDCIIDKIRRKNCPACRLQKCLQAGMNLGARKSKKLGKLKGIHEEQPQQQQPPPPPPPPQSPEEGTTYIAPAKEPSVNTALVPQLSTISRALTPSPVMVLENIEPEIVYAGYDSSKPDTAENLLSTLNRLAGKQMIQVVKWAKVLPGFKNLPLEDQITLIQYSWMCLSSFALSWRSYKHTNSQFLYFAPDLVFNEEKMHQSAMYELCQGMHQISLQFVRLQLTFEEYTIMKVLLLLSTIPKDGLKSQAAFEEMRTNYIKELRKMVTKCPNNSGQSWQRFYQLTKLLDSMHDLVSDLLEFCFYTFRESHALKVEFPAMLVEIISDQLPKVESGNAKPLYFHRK
# Description: Displacement of [3H]-aldosterone to human mineralocorticoid receptor LBD by radiometric binding assay
# Glucocorticoid receptor = target: T3, Glucocorticoid receptor (Homo sapiens, UniProt P04150)
# T3 sequence (P04150 whole entry): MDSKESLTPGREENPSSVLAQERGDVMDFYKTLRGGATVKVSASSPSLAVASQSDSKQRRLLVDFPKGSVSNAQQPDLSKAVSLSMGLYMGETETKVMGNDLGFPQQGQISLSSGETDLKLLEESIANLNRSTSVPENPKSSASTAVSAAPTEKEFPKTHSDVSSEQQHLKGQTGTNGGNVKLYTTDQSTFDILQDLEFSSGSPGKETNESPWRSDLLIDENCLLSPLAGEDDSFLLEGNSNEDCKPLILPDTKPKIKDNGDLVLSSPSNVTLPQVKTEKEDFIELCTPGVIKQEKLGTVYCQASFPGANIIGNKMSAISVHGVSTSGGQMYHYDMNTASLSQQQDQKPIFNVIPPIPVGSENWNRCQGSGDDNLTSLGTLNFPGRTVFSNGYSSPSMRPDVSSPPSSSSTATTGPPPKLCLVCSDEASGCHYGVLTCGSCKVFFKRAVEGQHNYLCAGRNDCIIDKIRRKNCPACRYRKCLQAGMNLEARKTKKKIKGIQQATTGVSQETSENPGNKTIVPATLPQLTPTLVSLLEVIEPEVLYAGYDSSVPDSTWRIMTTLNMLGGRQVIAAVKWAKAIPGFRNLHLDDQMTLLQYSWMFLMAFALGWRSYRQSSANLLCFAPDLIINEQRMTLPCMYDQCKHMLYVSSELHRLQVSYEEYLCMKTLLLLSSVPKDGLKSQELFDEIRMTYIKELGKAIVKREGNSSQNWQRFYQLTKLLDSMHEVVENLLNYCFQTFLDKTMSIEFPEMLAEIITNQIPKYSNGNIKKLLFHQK
# Description: Binding affinity to recombinant human GR LBD by fluormone GS red-fluorescence polarization assay
# [5] = target: T2, Mineralocorticoid receptor; remark: listed apart in the source
# Description: Antagonist activity at gal4-fused human mineralocorticoid receptor LBD expressed in UAS-MR-bla HEK293 cells by luciferase reporter gene assay
# Rattus norvegicus = assay: Induction of hyperkalemia in Sprague-Dawley rat fed on low salt diet for 72 hrs assessed as increase in Na+/K+ ratio in urine administered via oral gavage after 8 hrs; format: organism-based; conditions: in vivo
# [6] = Fraction unbound in Han Wistar rat plasma at 1 uM after 4 hrs by LC/MS/MS analysis; format: ADME, cell-free
# [7] = Intrinsic clearance in Han Wistar rat hepatocytes assessed per million cells at 1 uM after 4 hrs by LC/MS/MS analysis; format: ADME, cell-based, Hepatocyte; conditions: read-out: CLH
# [8] = Volume of distribution at steady state in Han Wistar rat at 1.2 mg/kg, iv by LC-MS/MS analysis; format: ADME, organism-based; conditions: in vivo, read-out: Vdss
# [9] = Clearance in Han Wistar rat at 1.2 mg/kg, iv by LC-MS/MS analysis; format: ADME, organism-based; conditions: in vivo
# [10] = Terminal half life in Han Wistar rat at 1.2 mg/kg, iv by LC-MS/MS analysis; format: ADME, organism-based; conditions: in vivo, read-out: beta t1/2 (converted)
# [11] = Oral bioavailability in Han Wistar rat at 2.1 mg/kg by LC-MS/MS analysis; format: ADME, organism-based; conditions: in vivo
logD [1],solubility kinetic at 24 h [2],Ki (Progesterone receptor),microsomal CLint at 1 µM [3],Ki [4],Ki (Glucocorticoid receptor),IC50 [5],"fraction unbound at 4 h, 1 µM [6]",hepatocyte CLint at 1 µM [7],Vd [8],clearance [9],half-life [10],bioavailability [11],SMILES,Activity (Rattus norvegicus)
2.9,126 µM,> 50100 nM,190 µL/min/mg,126 nM,2000 nM,794 nM,–,–,–,–,–,–,C[C@H]1CCc2cc(F)ccc2N1C(=O)c1ccc2c(c1)NC(=O)CO2,–
3.7,2 µM,> 50100 nM,40 µL/min/mg,> 10000 nM,> 15800 nM,> 10000 nM,–,–,–,–,–,–,O=C1COc2ccc(C(=O)N3c4ccc(Cl)cc4C[C@@H]3CCO)cc2N1,–
3.8,39.8 µM,2510 nM,> 300 µL/min/mg,2 nM,50.1 nM,63.1 nM,–,–,–,–,–,–,CC(C)C[C@H]1COc2cc(F)ccc2N1C(=O)c1ccc2c(c1)NC(=O)CO2,–
3.3,20 µM,–,> 300 µL/min/mg,2000 nM,–,5010 nM,–,–,–,–,–,–,CC1CCc2ccccc2N1S(=O)(=O)c1ccc2c(c1)NC(=O)CO2 (racemic),–
2.7,50.1 µM,–,128 µL/min/mg,794 nM,–,1580 nM,–,–,–,–,–,–,CC1CCc2ccccc2N1C(=O)c1ccc2c(c1)NC(=O)CO2 (racemic),–
0.8,1000 µM,–,9 µL/min/mg,–,–,–,0.76,5 µL/min/1e6 cells,1 L/kg,17 mL/min/kg,1.3 h,16%,COC(=O)[C@@H]1CC2=CC(=O)CC[C@]2(C)[C@@]23O[C@@H]2C[C@@]2(C)[C@@H](CC[C@@]24CCC(=O)O4)[C@H]13 [EPLERENONE],Toxic

# Continued, compound first:
SMILES,logD [1],solubility kinetic at 24 h [2],Ki (Progesterone receptor),microsomal CLint at 1 µM [3],Ki [4],Ki (Glucocorticoid receptor),IC50 [5],"fraction unbound at 4 h, 1 µM [6]",hepatocyte CLint at 1 µM [7],Vd [8],clearance [9],half-life [10],bioavailability [11],Activity (Rattus norvegicus)
C[C@@H]1COc2cc(F)ccc2N1C(=O)c1ccc2c(c1)NC(=O)CO2,2.7,–,> 50100 nM,11 µL/min/mg,–,–,–,–,–,–,–,–,–,–
CC(C)C[C@H]1COc2cc(F)ccc2N1C(=O)c1ccc2c(c1)NC(=O)CC2,3.6,79.4 µM,> 50100 nM,> 300 µL/min/mg,1000 nM,12600 nM,2510 nM,–,–,–,–,–,–,–
C[C@H]1COc2cccnc2N1C(=O)c1ccc2c(c1)NC(=O)CO2,1.3,1000 µM,> 50100 nM,6 µL/min/mg,1260 nM,> 15800 nM,> 10000 nM,–,–,–,–,–,–,–
O=C1COc2ccc(C(=O)N3c4ccc(F)cc4OC[C@@H]3CCO)cc2N1,1.8,1000 µM,25100 nM,15 µL/min/mg,200 nM,1260 nM,501 nM,–,–,–,–,–,–,–
O=C(O)C[C@H]1COc2cc(Cl)ccc2N1C(=O)c1ccc2c(c1)NC(=O)CO2,-0.5,1000 µM,> 50100 nM,< 3 µL/min/mg,158 nM,5010 nM,> 10000 nM,–,–,–,–,–,–,–
O=C1COc2ccc(C(=O)N3CCCc4ccccc43)cc2N1,2.4,50.1 µM,–,27 µL/min/mg,631 nM,–,2000 nM,–,–,–,–,–,–,–
NCC[C@H]1COc2cc(F)ccc2N1C(=O)c1ccc2c(c1)NC(=O)CO2,0.2,50.1 µM,> 50100 nM,12 µL/min/mg,> 10000 nM,> 15800 nM,> 10000 nM,–,–,–,–,–,–,–
